According to patent US8686113B2 (priority 2009, dated 2014):
Values after ≈ are worked out from the molar mass of the structure shown. Like-named read-outs stand apart in the source and are kept apart here. Non-standard residues stand in square brackets, D forms with d. Residues, ends and D or L forms follow the SMILES beside them. No end group written: not given here. Hyp = O=C(O)[C@@H]1C[C@@H](O)CN1; Tle = CC(C)(C)[C@H](N)C(=O)O; Orn = NCCC[C@H](N)C(=O)O

Legend:
M. luteus 10240 [1] = test: Growth inhibition assay (microdilution MIC); assay type: cell-based, Micrococcus luteus
Outline: (§1)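 Broth microdilution in 1% TSB with twofold peptide series, final 128 μg/mL to 62.5 ng/mL, against 5×10^6 bacteria/mL stock suspension added 1:1. Incubated 20 h at 37 °C, growth read by absorbance at 595 nm; MIC is the lowest concentration with no growth, determined in triplicate.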

[2] = mouse, serum
Description: (§3) For this, the peptides and peptidomimetics were dissolved in water, mouse serum was added and the peptide concentration was adjusted to 75 μg/mL. While shaking continuously, the mixture was incubated at 37° C. After 0, 30, 60, 120, 240 and 360 minutes, in each case an aliquot was taken and mixed with 15% aqueous trichloroacetic acid (Carl Roth GmbH & Co. KG; Karlsruhe, Germany). After incubation on ice for a further 10 minutes, the precipitated serum proteins were centrifuged off (5 min, 13400 rpm, MiniSpin, Eppendorf AG, Hamburg, Germany). The supernatant was removed, neutralized with 1 mol/L aqueous sodium hydroxide solution (Fluke Chemie GmbH, Buchs, Switzerland) and stored at −20° C. until analysis.
(§4) The supernatants were analyzed by RP-HPLC with a linear acetonitrile gradient (Biosolve BV, Valkenswaard, The Netherlands) in the presence of 0.1% trifluoroacetic acid (TFA, UV-grade, Fluka Chemie GmbH, Buchs, Switzerland) as ion-pairing reagent. The fractions were co-crystallized with α-cyanohydroxycinnamic acid (Bruker Daltonik GmbH; Bremen, Germany) as matrix (5.3 mg/mL in 50% acetonitrile in 0.1% aqueous TFA) and were analyzed with a tandem mass spectrometer (MALDI-TOF/TOF-MS, 4700 Proteomics Analyzer; Applied Biosystems GmbH, Weiterstadt, Germany) in the positive-ion reflector mode. The proportion of intact peptides and their degradation products or metabolites could thus be identified and quantified at the individual time points. The control used was 25% aqueous mouse serum, which was analyzed in parallel for the same time intervals.

in vitro [3] = conditions: mouse, 100% mouse serum
Description: as §3, §4

[4] = tested on: bacterial proteases (E. coli BL21 A1 lysate); test: Stability against bacterial proteases in E. coli lysate; assay type: in vitro ADME; conditions: 37° C.
Outline: (§2)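 Peptide (0.15 μg/mL) incubated at 37° C. in E. coli BL21 A1 sonicated lysate in PBS pH 7.4, Bradford-adjusted to 1.5 or 0.5 mg/mL protein. Samples at 0–360 min TCA-precipitated and neutralized. Intact peptide and fragments quantified by HPLC, identified by MALDI-TOF-MS.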

[5] = as above; assay type: in vitro ADME; conditions: E. coli lysate with 0.5 mg/mL protein concentration
Outline: as §2

[6] = background statement; cited from earlier work
human erythrocytes = test: Hemolysis test; assay type: cell-based; conditions: 1 h at 37° C., relative to Triton X-100
Text: Another possibility for investigating the cytotoxicity of the peptides and peptide derivatives is the hemolysis test. The hemolytic activity is investigated on human erythrocytes (Ryge T S & Hansen P R. Potent antibacterial lysine-peptoid hybrids identified from a positional scanning combinatorial library. Bioorganic & Medicinal Chemistry 14: 4444-51, 2006), which the Leipzig University Hospital (Germany) made available as human erythrocyte concentrate in sodium chloride-adenine-glucose-mannitol buffer (stored at 4° C.). The erythrocytes were centrifuged off at 1000 g and washed three times with ten times the volume of cold phosphate-buffered saline (PBS, pH 7.4). The erythrocytes were diluted to a final concentration of 1% in PBS. One hundred microliters of erythrocyte suspension was pipetted into each V-shaped well of a 96-well polypropylene microtiter plate (Greiner Bio-One GmbH). Then 100 μL of the peptides dissolved in PBS was added to each position, to obtain a dilution series from 600 μg/mL to 4.7 μg/mL in seven dilution steps. The microtiter plate was incubated at 37° C. for 1 h and then centrifuged at 1000*g. 100 μL was taken from the supernatant, transferred to a 96-well flat-bottomed polystyrene microtiter plate (Greiner Bio-One GmbH) and the absorption was determined at 405 nm in a Sunrise microtiter plate reader (Tecan Trading AG, Mannedorf, Switzerland), to evaluate the release of the heme group. PBS or 0.1% Triton X-100® ((p-tert-octylphenoxy) polyethoxyethanol; Fluka Chemie GmbH, Buchs, Switzerland) and melittin (SIGMA-Aldrich-Laborchemikalien, Taufkirchen, Germany) were used as negative or positive controls. All hemolysis tests were carried out twice independently as double determination and the degree of hemolysis was determined from the following equation (Park Y et al. A Leu-Lys-rich antimicrobial peptide: activity and mechanism. Biochimica et Biophysica Acta-Proteins and Proteomics 1645: 172-82, 2003): Epeptide−EPBS)/ETriton−EPBS)×100% E=extinction at 405 nm

M. luteus 10240 [7] = assay type: cell-based, Micrococcus luteus; conditions: alanine scan
Description: The purified peptides and peptide derivatives were diluted in water to a final concentration of 500 μg/mL. The test microbes were plated out from a culture in the logarithmic growth phase at a concentration of approx. 3×10^5 cells/mL in 1% tryptic soy broth and 1.2% agarose (Fluka Chemie GmbH, Buchs, Switzerland). With spacing of 3 cm, in each case 10 μL of aqueous peptide solution (500 μg/mL) or 10 μL of water and antibiotic solution as controls were added dropwise. After incubation for 20 h at 37° C., the inhibition zone diameter (IZD) was determined. All tests were performed in aerobic conditions.

S. saprophyticus 15305 = conditions: 15305
P. mirabilis ATCC 7002 = conditions: ATCC 7002
E. coli D31 J. Wilson = conditions: ¼ Muller-Hinton medium
P. vulgaris ATCC 6896 = conditions: ATCC 6896
[8] = tested on: S. typhimurium ATCC 700408
in vitro [9] = conditions: mouse, 25% aqueous mouse serum, Half-life in 25% mouse serum, 37° C., 75 μg/mL peptide
Description: as §3, §4

E. coli BL21 A1 = assay type: cell-based, Escherichia coli
Outline: as §1

[10] = E. coli lysate with 0.5 mg/mL protein concentration; conditions: E. coli BL21 A1, 37° C., up to 360 min
[11] = 25% aqueous mouse serum, 37° C., 75 μg/mL peptide
Description: as §3, §4

[12] = tested on: Pseudomonas aeruginosa DSM 3227
[13] = tested on: Escherichia coli DSM 10233
[14] = tested on: Klebsiella pneumoniae DSM 681
[15] = mouse, serum, Half-life in 25% mouse serum, 25% aqueous mouse serum, 37° C., 75 μg/mL peptide
Description: as §3, §4

[16] = tested on: S. typhimurium ATCC 14028
[17] = tested on: K. pneumoniae K6 ATCC 700603; conditions: ATCC 700603
[18] = tested on: S. typhimurium s5 (J. Weiser); conditions: ¼ Muller-Hinton medium
E. coli 045-849 SENTRY = conditions: ¼ Muller-Hinton medium
K. pneumoniae ATCC 27799 = conditions: ATCC 27799
E. coli ATCC BAA-457 = conditions: ¼ Muller-Hinton medium
[19] = tested on: P. aeruginosa 10 J. Wilson
25% aqueous mouse serum = conditions: 37° C., up to 360 minutes
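For Half-life in 25% mouse serum in this document: intact peptide left at successive time points measured by reversed-phase HPLC with an acetonitrile gradient in the supernatant after precipitation of serum proteins.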

CC(C)C[C@H](NC(=O)[C@H](Cc1ccc(O)cc1)NC(=O)[C@@H]1CCCN1C(=O)[C@@H]1CCCN1C(=O)[C@H](CCCCN)NC(=O)[C@H](CC(=O)O)NC(=O)[C@@H](N)C(C)C)C(=O)N1CCC[C@H]1C(=O)N[C@@H](CCCNC(=N)N)C(=O)N1CCC[C@H]1C(=O)N[C@@H](CCCNC(=N)N)C(=O)N1CCC[C@H]1C(=O)N1C[C@H](O)C[C@H]1C(=O)N[C@@H](CCCNC(=N)N)C(=O)N1C[C@H](O)C[C@H]1C(=O)N[C@H](C(=O)N[C@@H](Cc1ccc(O)cc1)C(=O)N[C@@H](CC(N)=O)C(=O)N[C@@H](CCCN)C(N)=O)C(C)(C)C [compound 110] (H-VDKPPYLPRPRP[Hyp]R[Hyp][Tle]YN[Orn]-NH2)
MIC M. luteus 10240 (M. luteus 10240 [1]; 10240, 20 h): 16 µg/mL (≈ 6.89 µM) | half-life [2]: > 8 h | remaining at 8 h, 75 μg/mL (in vitro [3]): 70% | Half-life in E. coli lysate ([4]; E. coli lysate with 0.5 mg/mL protein concentration): >4 h | remaining at 4 h, 0.15 μg/mL ([5]; E. coli BL21 A1 lysate (bacterial proteases), pH 7.4, read-out: percentage printed under half-life >240 min (peptide remaining)): 90%

VDKGSYLPRPTPPRPIYNRN-NH2 [SEQ ID NO. 91]
half-life in mammalian serum (25%) [6]: 2 h

GNNRPVYIPQPRPPHPRL [compound 87]
Degree of hemolysis [%] at 600 μg/mL (human erythrocytes): 1.2%

H-VDKPPYLPRPRPPRRIYAR-NH2 [SEQ ID NO. 46]
increase in inhibition zone relative to oncocin, M. luteus (M. luteus 10240 [7]): 0.7 cm

GKPRPYSPRPTSHPRPIRV [compound 89]
Degree of hemolysis [%] at 600 μg/mL (human erythrocytes): 1.1%

VDKPPYLPRPRPPRRIYNR-NH2 [SEQ ID NO. 18]
MIC M. luteus 10240 (M. luteus 10240 [1]; 1% TSB, 20 h at 37° C.): 8 µg/mL | MIC S. saprophyticus 15305 (S. saprophyticus 15305): 16 µg/mL | MIC P. mirabilis ATCC 7002 (P. mirabilis ATCC 7002): 128 µg/mL | MIC P. aeruginosa 39324 (P. aeruginosa 39324): 4 µg/mL | MIC E. coli D31 J. Wilson (E. coli D31 J. Wilson): 2 µg/mL | MIC P. vulgaris ATCC 6896 (P. vulgaris ATCC 6896): 128 µg/mL | MIC K. pneumoniae 012-3131 (K. pneumoniae 012-3131): 4 µg/mL | MIC S. typhimurium ATCC 700408 [8]: 0.25 µg/mL | half-life at 75 μg/mL (in vitro [9]): 1 h | MIC E. coli BL21 A1 (E. coli BL21 A1; 1% TSB, 20 h at 37° C.): 4 µg/mL | half-life at 0.15 μg/mL ([4]; E. coli, E. coli BL21 A1 lysate, pH 7.4, E. coli lysate with 0.5 mg/mL protein concentration): 1 h

VDKPPYLPRPRPPRO-Tle-YNO-NH2
not cleaved [10]: >240 min, 90%

CC[C@H](C)[C@H](NC(=O)[C@@H]1C[C@@H](O)CN1C(=O)[C@H](CCCNC(=N)N)NC(=O)[C@@H]1CCCN1C(=O)[C@@H]1CCCN1C(=O)[C@H](CCCNC(=N)N)NC(=O)[C@@H]1CCCN1C(=O)[C@H](CCCNC(=N)N)NC(=O)[C@@H]1CCCN1C(=O)[C@H](CC(C)C)NC(=O)[C@H](Cc1ccc(O)cc1)NC(=O)[C@@H]1CCCN1C(=O)[C@@H]1CCCN1C(=O)[C@H](CCCCN)NC(=O)[C@H](CC(=O)O)NC(=O)[C@@H](N)C(C)C)C(=O)N[C@@H](Cc1ccc(O)cc1)C(=O)N[C@@H](CC(N)=O)C(=O)N[C@@H](CCCN)C(N)=O [compound 63] (H-VDKPPYLPRPRPPR[Hyp]IYN[Orn]-NH2)
Half-life in 25% mouse serum [11]: >6 h | half-life [2]: > 8 h | remaining at 8 h, 75 μg/mL (in vitro [3]): 60% | MIC E. coli BL21 A1 (E. coli BL21 A1; BL21, 20 h): 4 µg/mL (≈ 1.74 µM) | MIC P. aeruginosa DSM 3227 [12]: 16 to 32 µg/mL | MIC E. coli DSM 10233 [13]: 1 µg/mL (≈ 0.434 µM) | MIC K. pneumoniae DSM 681 [14]: 2 µg/mL (≈ 0.868 µM)

H-VDKPPYLPRPRPPRRIYNR-NH2 [compound 18]
half-life [15]: 1 h | Degree of hemolysis [%] at 600 μg/mL (human erythrocytes): 1.5% | MIC S. typhimurium ATCC 14028 [16]: 2 µg/mL | MIC K. pneumoniae K6 ATCC 700603 [17]: 8 µg/mL | MIC S. typhimurium s5 (J. Weiser) [18]: 4 µg/mL | MIC E. coli 045-849 SENTRY (E. coli 045-849 SENTRY): 4 µg/mL | MIC K. pneumoniae ATCC 27799 (K. pneumoniae ATCC 27799): 16 µg/mL | MIC E. coli SEQ 102ATCC # BAA-4 57 (E. coli ATCC BAA-457): 4 µg/mL | MIC P. aeruginosa 10 J. Wilson [19]: 8 µg/mL | half-life [2]: 0.5 h | MIC P. aeruginosa DSM 3227 [12]: >32 µg/mL | MIC E. coli DSM 10233 [13]: 16 µg/mL | MIC K. pneumoniae DSM 681 [14]: 4 µg/mL | half-life ([5]; 37° C.): 1 h

H-VDKPPYLPRPRPPRRAYNR-NH2 [SEQ ID NO. 44]
increase in inhibition zone relative to oncocin, M. luteus (M. luteus 10240 [7]): 0.7 cm

VDKPPYLPRPRPPRRIYNR-OH
cleaved bond (25% aqueous mouse serum): Asn18-arginine19, first_seen

VDKPPYLPRPRP-4tHyp-R-4tHyp-Tle-YNO-NH2
not cleaved [10]: >240 min, 90%

(p-tert-octylphenoxy) polyethoxyethanol [Triton X-100, reference compound]
Degree of hemolysis [%] at 600 μg/mL (human erythrocytes): 100%

GKPRPYSPRPTSHPRPIRV-OH [SEQ ID NO. 89, reference compound]
MIC M. luteus 10240 (M. luteus 10240 [1]; 10240, 20 h): 0.5 µg/mL | degradation in mammalian serum (25%) [6]: broken down within an hour
